According to US20220143184A1, “MITOCHONDRION/RIBONUCLEIC ACID-TARGETED AND MIGRATABLE PHOTOSENSITIZED PROBE AND APPLICATION THEREOF” (SHENZHEN INSTITUTES OF ADVANCED TECHNOLOGY, priority 2019, published 2022):

Legend:
[1] = test system: 4T1 cell subcutaneous tumor
Description: The 4T1 cells were cultured adherently in a culture medium containing a 10% fetal bovine serum, in a saturated humidity incubator with 5% CO2 at 37° C., and subcultured every 2-3 days. After the cells have grown to the logarithmic phase, the cells were subcutaneously inoculated into the right hind leg of a nude mouse: Specifically, the overgrown cells in the T25 cell culture flask were washed with 1 mL 0.25% trypsin, and then digested with another 1 mL 0.25% trypsin for 1 to 2 min. After adding the fresh medium, the cells were evenly pipetted, counted, centrifuged and washed with PBS three times, the cell density was controlled with the added amount of PBS to make a final concentration of cells to be 1×107 per milliliter. After that the cells were inoculated subcutaneously into the right hind leg of nude mice, each with approximately 1.2×10^6 cells. After the tumors grow for approximately a week, the mice were used for tumor photodynamic therapy and in vivo fluorescence imaging experiments.
The nude mouse tumor models prepared in Example 7 were divided into three groups for intratumor injection of drugs, with a dosage of 50 μL (1 mM) per tumor volume 100 mm^3.
After the photodynamic therapy, the tumor tissues are sectioned and stained with TUNEL and HE, and the results are shown in FIG. 19.

[2] = Hydroxyl radical generation in aqueous solution, APF fluorescence (Example 8, Experiment 3); assay type: physicochemical; settings: 10 μM APF, white light 300 mW/cm^2, 0-180 s
Description: (§1) Different reactive oxygen indicators were added to the photosensitized probe aqueous solution, and the fluorescence or absorption spectra were measured. Four experiments were conducted as follows:
10 μM APF was added to the aqueous solutions of PBS, 2 μM photosensitized probe, 2 μM photosensitized probe+0.8 mM RNA, 2 μM RB (a commercial singlet oxygen-generating photosensitizer). These solutions were irradiated for 0-180 s with the white light (300 mW/cm^2) of the xenon lamp, the fluorescence spectra at 500-700 nm were measured, and the fluorescence intensities at 514 nm were recorded to indicate the generation rate of hydroxyl radical.

[3] = test system: ribonucleic acid in the fixed cells; test: DNase and RNase digestion experiments in fixed HeLa cells (Example 4); assay type: cell-based; settings: 50 μg/mL RNase 2 h, 10 μM probe 30 min
Description: Preparation of fixed cells: firstly, the cover glasses (slides) covered with HeLa cells prepared in Example 2 were soaked in a 4% paraformaldehyde solution for 30 min, and then permeated with a 0.5% Triton X-100 at room temperature for 2 min to prepare fixed cells for staining.
Three groups of the above fixed cells were taken, in which, two groups were added with a 2 U/mL RNase-free DNase and a 50 μg/mL DNase-free RNase for digestion in the incubator for 2 h individually.
The stained slides were observed under a wide-field fluorescence microscope to record the stained regions, fluorescence distribution, and intensity changes in the cells.

HeLa cells [4] = test: Cell morphology (DIC) of HeLa cells during photodynamic therapy (Example 12); assay type: cell-based; settings: 10 μM probe, 510-560 nm, 3 min irradiation
Description: The resulting stained cells and a control group without the photosensitized probe incubation were observed under a fluorescence microscope, and differential interference contrast images of the cells during the photodynamic therapy (irradiated with mercury lamp at 510-560 nm) were recorded.

HeLa cells [5] = test: Dark toxicity to HeLa cells, MTT method (Example 16); assay type: cell-based; settings: 0-20 μM
Description: The HeLa cells prepared in Example 2 were incubated in a 96-well plate with 1×10^4 cells per well. […] The cell viability was determined by the MTT method to determine the dark toxicity of the probe.

ribonucleic acid [6] = test: Recognition of ribonucleic acid and deoxyribonucleic acid in solution, absorption/fluorescence spectra (Example 5); assay type: binding; settings: 10 μM probe
Description: A probe solution at concentration of 10 μM was mixed with a 120 μg/mL ribonucleic acid/deoxyribonucleic acid in PBS for 5 min, respectively, and then ultraviolet-visible absorption spectra and the fluorescence spectra under excitation at 488 nm were measured.

[7] = Oxygenous radicals by electron spin resonance with DMPO (Example 8, Experiment 4); assay type: physicochemical; settings: white light 300 mW/cm^2, 5 min
Description: as §1
DMPO was added to the aqueous solutions of RNA, 2 μM photosensitized probe of the application, 2 μM photosensitized probe+0.8 mM RNA. These solutions were irradiated for 5 min by the white light (300 mW/cm^2) of the xenon lamp. The electron spin resonance spectra before and after irradiation were measured, and the signal intensities indicate the amount of hydroxyl radicals.

HeLa cells [8] = test: Mitochondrial membrane potential of HeLa cells, JC-10 (Example 11); assay type: cell-based; settings: 10 μM probe, mercury lamp 510-560 nm
Description: The cells were observed under a confocal laser scanning microscope, and the fluorescence distribution and intensity changes in the cells before and after photodynamic therapy (irradiated by mercury lamp at 510-560 nm) were recorded.

[9] = Singlet oxygen generation in aqueous solution, ABDA absorbance (Example 8, Experiment 2); assay type: physicochemical; settings: for absorbance of ABDA at 378 nm with light irradiation: 50 μM ABDA, white light 300 mW/cm^2, 0-6 min
Description: as §1
50 μM ABDA was added to the aqueous solutions of PBS, 2 μM photosensitized probe, 2 μM photosensitized probe+0.8 mM RNA, and 2 μM RB (a commercial singlet oxygen-generating photosensitizer). These solutions were irradiated for 0-6 min with the white light (300 mW/cm^2) of the xenon lamp, absorption spectra at 300-600 nm were measured, and the absorbance values at 378 nm were recorded to indicate the generation rate of singlet oxygen.

[10] = test system: mitochondria of HeLa cells; test: Colocalization with Mito-Tracker Green (MTG) in HeLa cells before and after photodynamic therapy (Example 10); assay type: cell-based; settings: 10 μM probe, 1 μM MTG
Description: The glass-bottom cell culture dishes covered with HeLa cells prepared in Example 2 were washed three times with PBS, then incubated with a 1 μM MTG in a CO2 incubator in darkness for 30 min. […] The stained cells were observed under a confocal laser scanning microscope, and fluorescence distribution and intensity changes in the cells before and after the photodynamic therapy (irradiated by mercury lamp at 510-560 nm) were recorded.

HeLa cells [11] = test: Flow cytometry fluorescence intensity of HeLa cells before and after photodynamic therapy (Example 15); assay type: cell-based; settings: 10 μM 30 min, xenon lamp white light 5 min
Description: Three groups of HeLa cells prepared in Example 2 were washed three times with PBS. […] The three groups of cells were digested in darkness and dispersed in PBS, and the number of cells and their fluorescence intensities are recorded and analyzed by flow cytometry was.

[12] = Generation rate of all types of reactive oxygen species in aqueous solution, DCFH (Example 8, Experiment 1); assay type: physicochemical; settings: 2 μM probe + 0.8 mM RNA, white light 300 mW/cm^2, 0-180 s
Description: as §1
10 μM 2′,7′-dichlorodihydrofluorescein (DCFH) was added to aqueous solutions of PBS, 2 μM photosensitized probe, 2 μM photosensitized probe of the application+0.8 mM RNA, and 2 μM Rose Bengal B (RB). These solutions were irradiated for 0-180 s with white light (300 mW/cm^2) of a xenon lamp with ultraviolet light filtered out, fluorescence spectra at 500-700 nm were measured under 488 nm excitation, and the fluorescence intensities at 529 nm were recorded to indicate the generation rate of all types of reactive oxygen species.

ribonucleic acid [13] = test: Binding mode with ribonucleic acid, circular dichroism spectra (Example 14); settings: 10 μM in PBS, 5 min
Description: 10 μM (E)-4-(2-(5-methoxy-1H-indole-3-)vinyl)-1-methylquinolinium iodide was mixed with ribonucleic acid and deoxyribonucleic acid in PBS for 5 min, and the circular dichroism spectra were measured.

[14] = 120 μg/mL RNA in PBS, 5 min, excitation 488 nm

Compound: COc1ccc2[nH]cc(/C=C/c3cc[n+](C)c4ccccc34)c2c1.[I-] [photosensitized probe 1, (E)-4-(2-(5-methoxy-1H-indole-3-)vinyl)-1-methylquinolinium iodide]
- tumor growth (tumor volume) ([1]; 1+Light, within 16 days of therapy): significantly inhibited
- fluorescence intensity of the tumor site with the progress of the photodynamic therapy ([1]; intratumor injection 50 μL (1 mM) per 100 mm^3, 0-10 min during and 10-60 min after therapy): increases significantly
- fluorescence at the tumor site after the photodynamic therapy ([1]; probe with light irradiation): bright fluorescence at the tumor site
- TUNEL staining of tumor tissue section ([1]; probe with photodynamic therapy): died in the apoptosis pathway
- HE staining of tumor tissue section ([1]; probe with photodynamic therapy (third group)): seriously damaged
- fluorescence at the tumor site without the photodynamic therapy ([1]; probe, fed in darkness): weak fluorescence at the tumor site
- hydroxyl radicals generation (APF fluorescence at 514 nm) ([2]; 2 μM probe + 0.8 mM RNA): more hydroxyl radicals are generated
- hydroxyl radicals generation (APF fluorescence at 514 nm) ([2]; 2 μM probe alone): can effectively generate hydroxyl radicals
- fluorescence of the cells treated with RNase versus control group [3]: much weaker than that of the control group
- cell morphology after light irradiation (symbol of cell apoptosis) (HeLa cells [4]): many vesicles form near cell membrane
- dark toxicity (HeLa cells [5]; 24 h): very low and negligible
- cell viability in darkness (HeLa cells [5]; incubation 24 h, darkness): ~100%
- fluorescence emission peak after interacting with ribonucleic acid (ribonucleic acid [6]; [14]): around 600 nm
- increase of fluorescence intensity in RNA solution compared with the probe itself (ribonucleic acid [6]; [14]): approximately 40 times
- fluorescence with RNA compared with deoxyribonucleic acid (ribonucleic acid [6]; 120 μg/mL RNA or DNA in PBS): significantly stronger than the fluorescence after binding with deoxyribonucleic acid
- oxygenous radicals generation (ESR) ([7]; 2 μM probe + 0.8 mM RNA): more oxygenous radicals can be generated
- oxygenous radicals generation (ESR) ([7]; 2 μM probe alone): can effectively generate oxygenous radicals
- mitochondria membrane potential after photodynamic therapy (JC-10 aggregates fluorescence) (HeLa cells [8]): significantly reduced
- absorbance of ABDA at 378 nm with light irradiation ([9]; 2 μM probe + 0.8 mM RNA): slight decrease
- singlet oxygen generation compared with RB ([9]; 2 μM, white light 300 mW/cm^2): generates less singlet oxygen
- absorbance of ABDA at 378 nm with light irradiation ([9]; 2 μM, without RNA): slight decrease
- location of the probe before photodynamic therapy ([10]; darkness): located in the mitochondria
- location of the probe after photodynamic therapy ([10]; mercury lamp 510-560 nm): migration of the photosensitized probe to the cytoplasm and nucleolus regions
- fluorescence intensity of the cells after photodynamic therapy versus group without photodynamic therapy (HeLa cells [11]): enhanced significantly
- rate of reactive oxygen species production (DCFH fluorescence at 529 nm) versus probe alone and RB [12]: significantly higher
- binding mode with ribonucleic acid (ribonucleic acid [13]): minor groove binding
- circular dichroism spectrum after being mixed with DNA (ribonucleic acid [13]): no obvious change
- circular dichroism spectrum after being mixed with RNA (ribonucleic acid [13]): negative Cotton effect
